Data published in patent US20240424019A1, “SHP1 MODIFIED DENDRITIC CELLS AND EXTRACELLULAR VESICLES DERIVED THEREFROM AND ASSOCIATED METHODS” (BOARD OF REGENTS, THE UNIVERSITY OF TEXAS SYSTEM, priority 2021, published 2024).

Test system: OT-1 T cells
Assay: OT-1 T cell proliferation with OVA-loaded BMDCs
Assay type: cell-based, mouse
Conditions: VitE-treated, OVA-loaded BMDCs vs vehicle, day 3
Protocol: FIG. 2A: Percentage of human IFN-γ^+CD8^+ T cells in CD8^+ T cells in coculture with vehicle or VitE-treated autologous MoDCs (n=3). FIG. 2B: Representative flow cytometric analysis and quantification of antigen-specific OT-1 T cell proliferation stimulated with OVA-loaded mouse BMDCs that were treated with vehicle or VitE at day 3. FIG. 2C: Tumor growth curves of orthotopic EMT6 tumor-bearing mice treated with vehicle (Ctrl), Vitamin E (VitE), or VitE plus Cyt c (10 mg/kg. i.v, every other day starting on day 3) to deplete DCs (n=8/group). The statistical significance is defined by P-value: *P<0.05, **P<0.01, ***P<0.001. ****P<0.0001.
FIG. 3A: Volcano plot of reverse phase protein array (RPPA) data of mouse BMDCs treated with VitE (50 μg/ml) compared to those treated with vehicle control with tumor conditioned media (TCM) for 48 hours (n=3 independent samples). […] The grey dashed line indicates P-value of 0.05. FIG. 3B: t-SNEs by CyTOF and quantification comparing the intensity of pY564-SHP1 in TADCs from the vehicle-or VitE-treated EMT6 tumors at day 15 post-implantation. FIG. 3C: Top, SHP1 knockdown in BMDCs was effective. […] Right, quantification of OT-1 T-cell numbers under the indicated condition. FIG. 3D: The binding of VitE to purified SHP1 is analyzed by microscale thermophoresis (MST) binding assay. […]

Cc1c(C)c2c(c(C)c1O)CC[C@@](C)(CCC[C@H](C)CCC[C@H](C)CCCC(C)C)O2 [VitE, D-α-Tocopherol]
antigen-specific OT-1 T cells in coculture: increased the OVA-derived SIINFEKL antigen-specific OT-1 T cells in coculture
